Tests used:
[1] = tested on: histones and microtubules; settings: substrate as listed (H4-21, H3p19, H3, microtubules); cited from earlier work
[2] = tested on: auto-acetylated substrate; settings: auto-acetylation, cited from earlier work; for Km: read-out: Km AcCoA [auto]
[3] = tested on: MT bundling in QBI-293 cells; experiment: MT bundling in tau-transfected QBI-293 cells (immunofluorescence); assay type: cell-based; settings: ten fields/transfection
Protocol: FIG. 2, comprising FIG. 2A through FIG. 2K, depicts the results of experiments which illustrate that tau acetylation in cells inhibits tau-mediated MT stabilization. FIG. 2A depicts the results of an experiment where Doxycycline (Dox)-treated HEK-T40 cells were cultured in the presence of either trichostatin A (TSA), nicotinamide (NCA) or both and pulse labelled with [^3H]-acetate for 2 h. Tau was immunoprecipitated, treated with λ-phosphatase where indicated, and analyzed by SDS-PAGE followed by autoradiography and exposure to film for 2 weeks. Total cellular lysates were analyzed by immunoblotting using anti-tau (T14/T46), PHF-1 and GAPDH antibodies. FIG. 2B illustrates the results of an experiment where cells transfected with CBP were treated with TSA and acetylated tau levels were determined by immunoprecipitation/immunoblot analysis using anti-acetylated lysine antibody. Cellular lysates were immunoblotted using T14/46, PHF-1, AT8 and GAPDH antibodies. FIG. 2C depicts the results of an experiment where cells were transfected with CBP and either wild-type (WT) HDAC6 or the catalytically dead (CD) HDAC6-H611A mutant and tau acetylation was determined by immunoblotting similar to FIG. 2B above. FIG. 2D depicts the results of an experiment where QBI-293 cells were transfected with WT T40, 2KR (K280/281R), 3KR (K163/280/281R) or 4KR (K163/280/281/369R) mutant T40 and cell lysates were immunoblotted using anti-acetyl-lysine and total tau (T14/T46) antibodies. FIG. 2E through FIG. 2G are images illustrating the results of an experiment where QBI-293 cells were transfected with WT T40 (FIG. 2E) and total MT bundling was determined by immunofluorescence using anti-acetylated tubulin antibodies as shown for WT (FIG. 2F). Merged images indicate stabilized microtubules as shown for WT (FIG. 2G). FIG. 2H through FIG. 2J are images illustrating the results of an experiment where QBI-293 cells were transfected with 4KQ (K163/280/281/369Q) (FIG. 2H) and MT bundling was determined by immunofluorescence using anti-acetylated tubulin antibodies as shown for 4KQ (FIG. 2I) and merged images (FIG. 2J). Representative images are shown from n=4 independent experiments. Note, WT tau (FIG. 2E-FIG. 2G), but not 4KQ (FIG. 2H-FIG. 2J), promotes robust MT bundling. Scale bar, […]. FIG. 2K is a graph illustrating the results of an experiment where QBI-293 cells were transfected with WT T40, K280Q, 4KQ (K163/280/281/369Q) or 4KR mutant plasmids and MT bundling was determined from tau-expressing cells by quantification of ten fields/transfection and values are represented as % MT bundling from tau-expressing cells. Error bars indicate standard error of the mean. *P value=0.006, ***P value=8.46×10^−6 as determined by Student's t-test. […]

[4] = biological target: T1, tau-K18 acetyltransferase activity (Homo sapiens, UniProt P10636); experiment: Tau auto-acetylation filter binding assay, cofactor inhibition analysis; assay type: biochemical; settings: 25 μM tau, 450 μM [3H]-acetyl-CoA; for IC50: 1 hr at 37° C., read-out: IC50 for inhibition of acetyl-CoA-dependent tau-K18 acetyltransferase activity
T1 construct: made in house
T1 sequence (P10636 561-685 limits assumed): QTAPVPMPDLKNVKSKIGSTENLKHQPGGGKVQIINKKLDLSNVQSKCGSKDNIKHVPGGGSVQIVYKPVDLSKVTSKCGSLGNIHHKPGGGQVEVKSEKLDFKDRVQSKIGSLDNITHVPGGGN
Protocol: Reactions were assembled in 50 μl of reaction buffer containing 50 mM Tris pH 8.0, 100 μM EDTA, and 10% glycerol. Unless specifically noted, reactions contained 25 μM of either WT tau-K18 or tau-K18-2CA mutant. The reactions were initiated by the addition of [^3H]-acetyl-CoA (2.35 Ci mmol^−1, Perkin Elmer) at concentrations ranging from 2.5 μM to 1 mM, incubated at 37° C., and allowed to proceed for 1 hr (unless otherwise noted). Reactions were stopped by the addition of 10 μl of 3 mM CoA, and 25 μl of the reaction was then spotted to a P81 filter paper (Whatman), washed in 10 mM HEPES pH 7.5 three times, and dried using acetone. Incorporated [^3H]-acetyl-CoA was then measured using the Perkin Elmer Tri-Carb 2800TR Liquid Scintillation Analyzer, and the molar amount of acetyl groups incorporated into tau were calculated from a standard curve of the radiolabeled acetyl-CoA.
Reactions were performed in the buffer described above and at 25 μM tau. Reactions included between 1 and 4000 μM of the inhibitors: CoA, acetonyl-CoA, or pantothenic acid. All reactions were initiated by the addition of 450 μM [^3H]-acetyl-CoA (2.35 Ci mmol^−1, Perkin Elmer), incubated for 1 hr at 37° C., and stopped by spotting 25 μl of the reaction to the P81 filter paper. Radiolabeled incorporation was measured as stated above. All data were analyzed using GraphPad Prism to determine kinetic parameters and IC50 values.

[5] = tested on: acetylated tau in HEK-T40 cells; experiment: Tau acetylation in HEK-T40 cells ([3H]-acetate labelling / immunoprecipitation); assay type: cell-based, human
Protocol: FIG. 2, comprising FIG. 2A through FIG. 2K, depicts the results of experiments which illustrate that tau acetylation in cells inhibits tau-mediated MT stabilization. FIG. 2A depicts the results of an experiment where Doxycycline (Dox)-treated HEK-T40 cells were cultured in the presence of either trichostatin A (TSA), nicotinamide (NCA) or both and pulse labelled with [^3H]-acetate for 2 h. Tau was immunoprecipitated, treated with λ-phosphatase where indicated, and analyzed by SDS-PAGE followed by autoradiography and exposure to film for 2 weeks. Total cellular lysates were analyzed by immunoblotting using anti-tau (T14/T46), PHF-1 and GAPDH antibodies. FIG. 2B illustrates the results of an experiment where cells transfected with CBP were treated with TSA and acetylated tau levels were determined by immunoprecipitation/immunoblot analysis using anti-acetylated lysine antibody. […] FIG. 2C depicts the results of an experiment where cells were transfected with CBP and either wild-type (WT) HDAC6 or the catalytically dead (CD) HDAC6-H611A mutant and tau acetylation was determined by immunoblotting similar to FIG. 2B above. […] FIG. 2E through FIG. 2G are images illustrating the results of an experiment where QBI-293 cells were transfected with WT T40 (FIG. 2E) and total MT bundling was determined by immunofluorescence using anti-acetylated tubulin antibodies as shown for WT (FIG. 2F). […]

[6] = Heparin-induced tau fibrillization assay quantified by Thioflavin-T binding; assay type: biochemical; settings: 10 μM tau proteins, 10 μM heparin, 4-h incubation
Protocol: (§1) Recombinant full-length T40, 4R-tau MT-binding domain K18, or tau fibrils were acetylated by incubation with [^14C]-labeled acetyl-CoA in the presence or absence of CBP. FIG. 1A illustrates that the reaction products were analyzed by SDS-PAGE and Coomassie blue staining followed by overnight radiographic exposure using STORM phosphor-imager software. FIG. 1B depicts the results of an experiment where T40 or K18 proteins were incubated with acetyl-CoA and/or recombinant CBP and reaction products were subjected to immunoblot analysis using a polyclonal anti-tau-specific antibody for MT repeat domain (E10) and an anti-acetyl-lysine antibody. FIG. 1C is a graph depicting the MT assembly activities of K18 proteins as evaluated in light-scattering assays. Tubulin monomers (30 μM) were mixed with 40 μM tau proteins in MT assembly buffer supplemented with 2 mM guanosine triphosphate. MT assembly was determined by monitoring absorbance every minute at 350 nm using a SpectraMax plate reader. […] FIG. 1D is a graph illustrating the results of experiments where Tau proteins (10 μM) were evaluated in fibrillization reactions using 10 μM heparin to induce assembly. […] Samples were analysed by SDS-PAGE and Coomassie staining to monitor fibril formation. FIG. 1F illustrates the results of experiments where four-hour time points from fibrillization reactions were analysed by negative-staining EM. […]
Tau K18 protein was either mock acetylated or acetylated in vitro using acetyl-CoA substrate as indicated elsewhere herein. […] Protein concentrations were determined using the bicinchoninic acid protein assay (Pierce) with bovine serum albumin as the standard. Acetylated K18 and mock-treated K18 were assessed by a light-scattering assay as described elsewhere herein. […] The extent of fibrillization was assessed at different time points by ThT fluorescence assay, sedimentation analysis and negative staining EM as described elsewhere herein. For ThT fluorescence assay, ThT diluted in 100 mM glycine buffer (pH 8.5) was added and fluorometric readings were taken at 450 nm (excitation) and 510 nm (emission). […]

tubulin = experiment: MT assembly light-scattering assay; assay type: biochemical; settings: 30 μM tubulin, 40 μM tau proteins, 2 mM GTP
Protocol: as §1

p300: nuclear acetyltransferase, literature kinetics
Kcat [1]: 0.46 s⁻¹ | Km [2]: 3310 µM

4KR: tau non-mimetic mutant K163/280/281/369R
% MT bundling from tau-expressing cells [3]: ~50%

CC(=O)CSCCNC(=O)CCNC(=O)[C@H](O)C(C)(C)COP(=O)(O)OP(=O)(O)OC[C@H]1O[C@@H](n2cnc3c(N)ncnc32)[C@H](O)[C@@H]1OP(=O)(O)O [acetonyl-CoA]
IC50 [4]: 668 µM

K280Q: single K280Q acetylation mimetic of T40 tau
% MT bundling from tau-expressing cells [3]: ~40%

CC(/C=C/C(=O)NO)=C\[C@@H](C)C(=O)c1ccc(N(C)C)cc1 [trichostatin A]
acetylated tau levels ([5]; HEK-T40 cells pulse labelled with [3H]-acetate for 2 h): dramatic increase in acetylated tau levels | acetylated tau (anti-acetyl-lysine) ([5]; HEK-T40 cells transiently transfected with CBP): dramatic accumulation of acetylated tau

K18-K311D: K18 containing the K311D mutation, negative control
fibrillization (ThT) [6]: did not fibrillize

ESA1: MYST-family acetyltransferase, literature kinetics
Kcat [1]: 0.122 s⁻¹ | Km [2]: 9.4 µM

4KQ: tau acetylation mimetic K163/280/281/369Q
% MT bundling from tau-expressing cells [3]: ~7%

CC(C)(CO)[C@@H](O)C(=O)NCCC(=O)O [pantothenic acid]
inhibition of tau activity (cofactor competition) ([4]; between 1 and 4000 μM inhibitor): did not show significant inhibition

CC(C)(COP(=O)(O)OP(=O)(O)OC[C@H]1O[C@@H](n2cnc3c(N)ncnc32)[C@H](O)[C@@H]1OP(=O)(O)O)[C@@H](O)C(=O)NCCC(=O)NCCS [CoA]
IC50 [4]: 59 µM

acetylated K18: tau K18 protein acetylated in vitro using acetyl-CoA and CBP
MT assembly (absorbance at 350 nm) (tubulin): failed to promote MT assembly | fibrillization (ThT) [6]: fibrillized rapidly by 3 h

WT tau: wild-type longest human tau isoform (T40) expressed in cells
% MT bundling from tau-expressing cells [3]: ~55%

Rtt109 + Vps75: acetyltransferase listed for literature kinetics comparison
Kcat [1]: 0.375 s⁻¹ | Kcat [auto] [2]: 0.002 s⁻¹ | Km [2]: 912 µM
